Test results from US7879887B2, “α-amino acid derivatives and medicaments containing the same as an active ingredient” (Nissan Chemical Industries, Ltd., priority 2006, dated 2011).
pIC50: −log10 of the molar value.

Columns and labels:
[1] = tested on: ovarian cancer cell line IGROV1; assay: Cell proliferation inhibitory activity, IGROV1; type: cell-based; conditions: cells counted 4 days later with Cell Counting Kit-8
Description: (§1) Evaluations were carried out using colon carcinoma cell line SW620 (Cat. No. CCL-227), lung carcinoma cell line NCI-H460 (Cat. No. HTB-177), prostate cancer cell line DU 145 (Cat. No. HTB-81), breast cancer cell line MDA-MB-231 (Cat. No. HTB26) and leukemia cell line KG-1a (Cat. No. CCL-246.1) purchased from ATCC, pancreatic cancer cell line MIAPaCa-2 (Cat. No. CRL-1420) purchased from Dainippon Pharmaceutical, and ovarian cancer cell line IGROV1 received from the Netherland Cancer Institute. The cells were cultured under the conditions recommended by the supplier for each cell line, or with respect to IGROV1, according to the method described in Cancer Res. 59: 4559-4563, 1999. Cells suspended in media were added to solutions containing the test substances at various concentrations followed by culturing in a 5% CO2 incubator at 37° C. The numbers of cells were counted 4 days later with the Cell Counting Kit-8. IC50 values were calculated by assigning measured values in the case of not containing a test substance to an inhibition of 0%, and assigning measured values in the case of not containing a test substance or cells to an inhibition of 100%.

[2] = tested on: colon carcinoma cell line SW620; assay: Cell proliferation inhibitory activity, SW620; type: cell-based, human; conditions: cells counted 4 days later with Cell Counting Kit-8
Description: as §1

[3] = tested on: leukemia cell line KG-1a; assay: Cell proliferation inhibitory activity, KG-1a; type: cell-based; conditions: cells counted 4 days later with Cell Counting Kit-8
Description: as §1

[4] = target: CDK2/Cyclin E complex (Homo sapiens, UniProt P24941); assay: In vitro kinase assay, CDK2/Cyclin E complex; type: biochemical; conditions: recombinant protein (Upstate); read-out: CDK2/cyclinE IC50
Description: (§2) Inhibitory activity against Aurora A, CDK1/Cyclin B complex, CDK2/Cyclin E complex and CDK3/Cyclin E complex were measured by in vitro kinase assay using recombinant proteins.

[5] = target: T1, CDK3/Cyclin E complex (Homo sapiens, UniProt Q00526); assay: In vitro kinase assay, CDK3/Cyclin E complex; type: biochemical; conditions: recombinant protein (Upstate); read-out: CDK3/cyclinE IC50
T1 construct: purchased Upstate Inc. 14-487
T1 sequence (Q00526 whole entry): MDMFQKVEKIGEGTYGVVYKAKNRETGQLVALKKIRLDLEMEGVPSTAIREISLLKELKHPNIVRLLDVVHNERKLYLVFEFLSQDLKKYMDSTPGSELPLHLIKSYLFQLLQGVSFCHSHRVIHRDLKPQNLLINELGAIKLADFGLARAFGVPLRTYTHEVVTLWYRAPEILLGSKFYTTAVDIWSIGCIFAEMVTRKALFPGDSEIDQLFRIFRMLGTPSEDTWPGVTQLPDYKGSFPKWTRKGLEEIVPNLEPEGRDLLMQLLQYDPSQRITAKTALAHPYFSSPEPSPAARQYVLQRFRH
T1 sequence (P24864 whole entry partner): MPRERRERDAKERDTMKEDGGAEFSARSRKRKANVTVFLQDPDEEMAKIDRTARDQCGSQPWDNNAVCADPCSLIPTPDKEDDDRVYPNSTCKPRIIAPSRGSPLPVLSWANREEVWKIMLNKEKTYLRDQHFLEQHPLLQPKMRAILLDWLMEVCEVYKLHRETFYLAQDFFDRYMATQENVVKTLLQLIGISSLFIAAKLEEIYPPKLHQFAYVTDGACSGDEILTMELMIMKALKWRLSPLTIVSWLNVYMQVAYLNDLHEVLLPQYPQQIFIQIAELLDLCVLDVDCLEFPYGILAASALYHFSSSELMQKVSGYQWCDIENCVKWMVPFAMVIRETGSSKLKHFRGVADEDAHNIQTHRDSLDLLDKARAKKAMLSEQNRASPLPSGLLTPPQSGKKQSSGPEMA
Description: as §2

[6] = tested on: breast cancer cell line MDA-MB-231; assay: Cell proliferation inhibitory activity, MDA-MB-231; type: cell-based; conditions: cells counted 4 days later with Cell Counting Kit-8
Description: as §1

[7] = target: T2, Aurora A (Homo sapiens, UniProt O14965); assay: In vitro kinase assay, Aurora A; type: biochemical; conditions: recombinant protein (Upstate)
T2 construct: purchased Upstate Inc. 14-511
T2 sequence (O14965 1-403): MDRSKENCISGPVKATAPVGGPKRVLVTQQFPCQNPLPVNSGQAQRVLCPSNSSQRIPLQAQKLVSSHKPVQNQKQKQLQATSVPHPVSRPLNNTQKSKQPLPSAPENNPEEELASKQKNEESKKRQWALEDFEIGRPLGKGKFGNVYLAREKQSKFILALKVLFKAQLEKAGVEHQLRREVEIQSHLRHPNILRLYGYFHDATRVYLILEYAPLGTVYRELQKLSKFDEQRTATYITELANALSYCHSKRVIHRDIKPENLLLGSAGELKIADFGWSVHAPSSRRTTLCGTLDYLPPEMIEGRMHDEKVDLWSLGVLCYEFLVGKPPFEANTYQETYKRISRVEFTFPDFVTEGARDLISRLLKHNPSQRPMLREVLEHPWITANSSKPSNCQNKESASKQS
Description: (§3) Inhibitory activity against Aurora A, CDK1/Cyclin B complex, CDK2/Cyclin E complex and CDK3/Cyclin E complex were measured by in vitro kinase assay using recombinant proteins. The assays were carried out by using recombinant proteins (Upstate Inc.) for Aurora A, CDK1/Cyclin B complex, CDK2/Cyclin E complex and CDK3/Cyclin E complex (respective cat. nos. 14-511, 14-450, 14-448 and 14-487), in accordance with the procedure described in the product instructions thereof. The 50% inhibitory concentrations (IC50 values) were calculated by assigning measured values in the case of not containing a test compound to an inhibition of 0%, and assigning measured values in the case of not containing a test compound and enzyme to an inhibition of 100%.

[8] = tested on: prostate cancer cell line DU 145; assay: Cell proliferation inhibitory activity, DU 145; type: cell-based, human; conditions: cells counted 4 days later with Cell Counting Kit-8
Description: as §1

[9] = tested on: lung carcinoma cell line NCI-H460; assay: Cell proliferation inhibitory activity, NCI-H460; type: cell-based; conditions: cells counted 4 days later with Cell Counting Kit-8
Description: as §1

[10] = target: T3, CDK1/Cyclin B complex (Homo sapiens, UniProt P06493); assay: In vitro kinase assay, CDK1/Cyclin B complex; type: biochemical; conditions: recombinant protein (Upstate)
T3 construct: purchased Upstate Inc. 14-450
T3 sequence (P06493 whole entry): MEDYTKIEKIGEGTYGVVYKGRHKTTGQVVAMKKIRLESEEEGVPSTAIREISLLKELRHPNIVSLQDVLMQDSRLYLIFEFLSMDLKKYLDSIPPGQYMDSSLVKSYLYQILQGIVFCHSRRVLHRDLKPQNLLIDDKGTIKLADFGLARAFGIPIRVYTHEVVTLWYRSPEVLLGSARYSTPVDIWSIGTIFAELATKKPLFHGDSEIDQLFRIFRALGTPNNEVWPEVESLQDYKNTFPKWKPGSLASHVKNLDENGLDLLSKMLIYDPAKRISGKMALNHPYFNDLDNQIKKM
T3 sequence (P14635 whole entry partner): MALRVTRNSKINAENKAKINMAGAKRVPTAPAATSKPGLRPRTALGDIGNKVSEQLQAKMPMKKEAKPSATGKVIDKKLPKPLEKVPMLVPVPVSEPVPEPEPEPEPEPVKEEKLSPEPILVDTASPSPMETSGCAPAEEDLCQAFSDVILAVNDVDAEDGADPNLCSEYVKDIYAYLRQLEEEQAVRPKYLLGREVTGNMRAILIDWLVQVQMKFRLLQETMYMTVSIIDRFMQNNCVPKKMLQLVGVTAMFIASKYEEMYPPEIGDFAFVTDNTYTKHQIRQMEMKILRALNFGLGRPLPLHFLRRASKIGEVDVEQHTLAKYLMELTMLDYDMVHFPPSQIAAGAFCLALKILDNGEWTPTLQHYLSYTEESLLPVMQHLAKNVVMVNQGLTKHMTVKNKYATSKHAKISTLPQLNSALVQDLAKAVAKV
Description: as §3

SMILES | pIC50 [1] | pIC50 [2] | pIC50 [3] | pIC50 ([1]; Homo sapiens, IGROV-1, 96 h) | pIC50 [4] | pIC50 [5] | pIC50 ([2]; Homo sapiens, SW-620, 96 h) | pIC50 ([6]; Homo sapiens, 96 h) | pIC50 ([3]; Homo sapiens, 96 h) | pIC50 [7] | pIC50 ([8]; Homo sapiens, 96 h) | pIC50 ([9]; Homo sapiens, 96 h) | pIC50 [10] | pIC50 [8] | pIC50 [9] | pIC50 [6]
COc1cccc(NCC(=O)Nc2nc3ccc4[nH]ncc4c3s2)c1 [compound 1] | 5.34 | 5.80 | > 7.00 |  |  |  |  |  |  |  |  |  |  |  |  | 
O=C(CNc1cccc(F)c1)Nc1nc2ccc3[nH]ncc3c2s1 [compound 3] |  |  |  | 5.31 | 6.70 | 6.41 | 5.77 | 5.33 | 7.00 |  |  |  |  |  |  | 
Nc1cccc(NCC(=O)Nc2nc3ccc4[nH]ncc4c3s2)c1 [compound 11] |  |  |  | 5.32 | 6.72 | 6.45 | 5.80 |  | > 7.00 |  |  |  |  |  |  | 
COC(=O)Nc1cc(NC(C)(C)C(=O)Nc2nc3ccc4[nH]ncc4c3s2)ccc1Cl [compound 50] |  |  |  | 5.32 | 6.36 |  | 5.60 |  | > 7.00 | 6.37 |  |  |  |  |  | 
CC(C)(Nc1ccc(Cl)c(NS(C)(=O)=O)c1)C(=O)Nc1nc2c(C(F)(F)F)cc3[nH]ncc3c2s1 [compound 84] |  |  |  |  | 7.36 | 7.36 | 5.80 | 5.32 | 6.70 | 6.61 | 5.47 | 5.49 | 6.69 |  |  | 
CNC(=O)Nc1cc(NC(C)(C)C(=O)Nc2nc3c(C(F)(F)F)cc4[nH]ncc4c3s2)ccc1Cl [compound 90] |  |  |  |  | 6.80 | 7.15 | 5.89 | 5.36 |  |  | 5.72 | 5.60 | 6.44 |  |  | 
CC(C)(Nc1ccc(Cl)c(OCCCS(N)(=O)=O)c1)C(=O)Nc1nc2c(C(F)(F)F)cc3[nH]ncc3c2s1 [compound 94] | 5.35 | 5.74 |  |  |  |  |  |  |  |  |  |  |  | 5.38 | 5.70 | 5.55
O=C(CNc1ccccc1)Nc1nc2ccc3[nH]ncc3c2s1 [compound 104] |  |  |  | 5.33 | 6.39 | 6.40 | 6.00 | 5.31 | > 7.00 |  |  |  |  |  |  | 
O=C(Nc1nc2ccc3[nH]ncc3c2s1)C1(Nc2ccc(Cl)cc2)CCC1 [compound 114] |  |  |  |  | 7.08 | 6.76 | 6.15 | 5.33 | > 7.00 |  |  |  |  |  |  | 
O=C(Nc1nc2ccc3[nH]ncc3c2s1)C1(Nc2ccc(Cl)cc2)CCCC1 [compound 115] |  |  |  | 5.32 | 6.81 | 6.66 | 6.15 | 5.41 | > 7.00 |  | 5.49 |  |  |  |  | 
O=C(Nc1nc2ccc3[nH]ncc3c2s1)C1(Nc2ccc(Cl)cc2)CCCCC1 [compound 116] |  |  |  | 5.31 | 6.61 | 6.39 | 6.00 |  | 6.70 |  | 5.47 |  | 6.31 |  |  | 
O=C(Nc1nc2ccc3[nH]ncc3c2s1)C1(Nc2cccc(O)c2)CC1 [compound 122] |  |  |  | 5.31 | 7.25 | 7.20 | 5.96 | 5.51 | > 7.00 | 6.77 | 5.35 | 5.40 | 6.71 |  |  | 
